According to patent US12350247B2, “Use of APE1/Ref-1 inhibitors for treatment of retinal diseases” (Indiana University Research and Technology Corporation, priority 2017, dated 2025):
Where two headings read alike, the source gives them in different places.

Columns and labels:
Pa03C [1] = assay: Monolayer cytotoxicity under hypoxia (alamarBlue); assay type: cell-based; details: N = 3, read-out: LC50 (the source's name)
Text: (§1) To determine target selectivity, analogs of APX3330, APX2009 and APX2014, and an analog of SLC-0111, FC12-531A, were used.

Panc10.05 [2] = assay: Monolayer cytotoxicity under hypoxia (alamarBlue); assay type: cell-based
Text: as §1

CA9 [3] = assay: Hypoxia-induced CA9 mRNA and protein levels in 10.05 monolayer cells; assay type: cell-based, human; details: 10.05 cells, 0.2% O2 for 24 hours
Method: (§2) Western Blot Analysis: Immunoblotting was performed using antibodies for APE1/Ref-1 (Novus Biologicals; Littleton, CO), CA9 (Santa Cruz; Dallas, Texas), Actin (NeoMarkers; Fremont, CA), and Vinculin (Sigma; St. Louis, MO).
The comparative Ct method was used to quantitate mRNA levels using RPLP0 and B2M as reference genes. The primers for CA9, RPLP0, and B2M are commercially available (Applied Biosystems). Experiments were performed in triplicate for each sample.

CA9 [4] = assay: CA9 protein expression in 10.05 3D tumor spheroids (Western blot); assay type: cell-based, human; details: 3D spheroid cultures, 12 days, treated on days 4 and 8
Method: as §2
The effect of APE1/Ref-1 redox inhibition on CA9 protein expression was also measured in 3D tumor spheroids.

10.05 cells = assay: Intracellular pH assay (pHrodo Red AM) in hypoxic 10.05 cells; assay type: cell-based, human; details: 0.2% O2 48 hrs; up to 50 μM APX3330, 100 μM SLC-0111; 8 APX2009, 5 μM APX2014
Text: Therefore, the APX3330 analogs, APX2009 and APX2014, were used to determine whether APE1/Ref-1 redox inhibition alone can shift intracellular pH in hypoxic PDAC cells given a sufficiently potent inhibitor.

CAFs (CAF19 cells) = assay: 3D spheroid co-culture, CAF signal (green channel); details: read-out: LC50, 3D Cultures, CAFs
Panc10.05 [5] = assay: 3D tumor spheroid culture growth (fluorescence intensity); details: read-out: LC50; 3D Cultures, Tumor Alone, Panc10.05, D12 curves
Pa03C [6] = assay: as above; details: read-out: LC50; 3D Cultures, Tumor Alone, Pa03C, D12 curves
[7] = system: Pa03C and Panc10.05 tumor cells; assay: 3D spheroid / co-culture model of pancreatic cancer (both patient lines); details: for single agent efficacy on 3D spheroid growth: treated on days 4 and 8, FIG. 17
Method: Pa03C cells were plated into 3D cultures alone or with CAF19 cells.
Pa03C and Panc10.05 tumor cells were grown in 3D cultures in the presence of CAFs. Spheroids were treated with either single agents, vehicle (DMSO) or combination of targeted agents on days 4 and 8 (black arrows), and the intensity of tumor (red) and CAF (green) were quantified as described in Example 7 every 3-4 days in culture.

[8] = system: mouse colon cell line MC-38; assay: Alamar blue cytotoxicity assay; assay type: cell-based; details: single agent, 72 hours
Method: MC-38 cells (Yunhua Liu) were seeded in a 96-well tissue culture plate at 2000 cells/well in DMEM+10% FBS and grown overnight at 37° C., 5% CO2. […] Cells were incubated for 72 hours at 37° C., 5% CO2. Media was exchanged with DMEM+5% FBS+10% Alamar blue fluorescent cell viability indicator (Invitrogen™) and incubated 4 hours at 37° C., 5% CO2 and then read on a fluorescent reader (Synergy™ H4 BioTek). […] Data shown is the average of 3 separate cytotoxicity assays; each assay normalized to media only control.

[9] = system: human carcinoma colon cell line HCT-116; assay: Alamar blue cytotoxicity combination assay (CalcuSyn); assay type: cell-based; details: only one APX2014 dosage (12.5 uM), spiked with 75 uM CPI-613
Method: HTC-116 (Yunhua Liu) was seeded in a 96-well tissue culture plate at 2000 cells/well in DMEM+10% FBS and grown overnight at 37° C., 5% CO2. Drug Media DMEM+5% FBS was added at dosages of APX3330 (Apexian) in a 5-point spread from 75 uM to 6.3 uM and spiked with CPI-613 (Apexbio Technology) at 75 uM, or 50 uM, or alone for single agent. Cells were incubated for 72 hours at 37° C., 5% CO2. Media was exchanged with DMEM+5% FBS+10% Alamar blue fluorescent cell viability indicator (INVITROGEN™) and incubated 4 hours at 37° C., 5% CO2 and then read on a fluorescent reader (SYNERGY™ H4 BioTek). […] depicts Chou-Talalay Index (CI) of dose combinations (CalcuSyn). FIG. 32E depicts synergistic drug combinations (CalcuSyn) of APX3330 spiked with 50 uM CPI-613 or 75 uM CPI-613. […] Data shown is the average of 3 separate cytotoxicity assays; each assay normalized to media only control.
HTC-116 (Yunhua Liu) was seeded in a 96-well tissue culture plate at 2000 cells/well in DMEM+10% FBS and grown overnight at 37° C., 5% CO2. Drug Media DMEM+5% FBS was added at dosages of APX3330 (Apexian) from 100 uM to 0.4 uM in a 10-point spread and spiked with CPI-613 (Apexbio Technology) at 100 uM, or 75 uM, or alone for single agent. Cells were incubated for 72 hours at 37° C., 5% CO2. Media was exchanged with DMEM+5% FBS+10% Alamar blue fluorescent cell viability indicator (INVITROGEN™) and incubated 4 hours at 37° C., 5% CO2 and then read on a fluorescent reader (SYNERGY™ H4 BioTek). […] FIG. 33D depicts Chou-Talalay Index (CI) of dose combinations (CalcuSyn). FIG. 33E depicts synergistic drug combinations (CalcuSyn) of APX3330 spiked with 100 uM CPI-613 or 75 uM CPI-613. […] Data shown is the average of 3 separate cytotoxicity assays; each assay normalized to media only control.
HTC-116 (Yunhua Liu) was seeded in a 96-well tissue culture plate at 2000 cells/well in DMEM+10% FBS and grown overnight at 37° C., 5% CO2. Drug Media DMEM+5% FBS was added at dosages of APX2014 (Apexian) in a 5-point spread from 25 uM to 1.6 uM and spiked with CPI-613 (Apexbio Technology) at 75 uM, or 50 uM, or alone for single agent. Cells were incubated for 72 hours at 37° C., 5% CO2. Media was exchanged with DMEM+5% FBS+10% Alamar blue fluorescent cell viability indicator (INVITROGEN™) and incubated 4 hours at 37° C., 5% CO2 and then read on a fluorescent reader (SYNERGY™ H4 BioTek). […] FIG. 34D depicts Chou-Talalay Index (CI) of dose combinations (CalcuSyn). FIG. 34E depicts synergistic drug combinations (CalcuSyn) of APX2014 spiked with 50 uM CPI-613 or 75 uM CPI-613. Drug combination synergy could not be ascertained at APX2014 dosages when spiked with 50 uM CPI-613. […] Data shown is the average of 3 separate cytotoxicity assays; each assay normalized to media only control.
HTC-116 (Yunhua Liu) was seeded in a 96-well tissue culture plate at 2000 cells/well in DMEM+10% FBS and grown overnight at 37° C., 5% CO2. Drug Media DMEM+5% FBS was added at dosages of APX3330 (Apexian) from 100 uM to 0.4 uM in a 10-point spread and spiked with CB-839 (Sigma-Aldrich) at 1000 nM, or 500 nM, or alone for single agent. Cells were incubated for 72 hours at 37° C., 5% CO2. Media was exchanged with DMEM+5% FBS+10% Alamar blue fluorescent cell viability indicator (INVITROGEN™) and incubated 4 hours at 37° C., 5% CO2 and then read on a fluorescent reader (SYNERGY™ H4 BioTek). FIG. 35A depicts APX3330 and CB-839 single agent effects. FIG. 35B depicts APX3330 and CB-839 synergistic combo effects. […] FIG. 35E depicts synergistic drug combinations (CalcuSyn) of APX3330 spiked with 1000 nM CB-839 or 500 nM CB-839 (5-pt only). […] Data shown is the average of 3 separate cytotoxicity assays; each assay normalized to media only control.

[10] = system: bladder cell line BLCAb001; assay: 96-hour viability assay, APX2014 with cisplatin; assay type: cell-based; details: APX2014 doses of 6 mM-3 mM in combination with cisplatin
Method: The BLCAb001 (cisplatin resistant) cell line was treated with increasing concentrations of APX2014 and cisplatin as single agents and in combination and assayed in a 96-hour viability assay. The concentrations of APX2014 range from 6 mM-0.38 mM in combination with the indicated cisplatin doses (FIG. 36A). […] The concentrations of Cisplatin as a single agent range from 2.5 mM-0.04 mM (FIG. 36B).

Panc10.05 [11] = system: Panc10.05
Pa03C [12] = system: Pa03C
PDAC cells and CAFs = assay: 3D co-culture cytotoxicity, Ref-1 inhibition with docetaxel or trametinib; assay type: cell-based
Text: Standard 3D co-culture assays as prepared in Arpin, C. et al., Mol Cancer Ther 15, 794-805 (2016); Logsdon, P. et al., Mol Cancer Ther 15, 2722-2732 (2016); Cardoso, A. et al., PloS one 7, e4742 (2012); and Kelley, M. et al., The Journal of pharmacology and experimental therapeutics 359, 300-309 (2016) were used to evaluate the cytotoxicity of the combinations on tumor cells as well as cancer-associated fibroblasts.

[13] = system: patient-derived Pa03C tumors with CAFs; assay: Flank co-culture model of PDAC, APX3330 and Ruxolitinib; assay type: in vivo, mice; details: treatment alone, 50 mg/kg, day 28
Method: Treatment of the implanted tumors started on day 11 post implant. Particularly, the co-cultures implanted included 2.5×10^6 tumor cells +/−5 ×10^6 CAFs, providing a 1:2 ratio of tumor cell to CAF. […] The mice were then administered either 50 mg/kg APX3330 BID in 4% Cr:EtOH, 50 mg/kg Rux SID pm in 4% Cr:EtOH, or combinations of the agents. Treatment schedule consisted of treating for 5 days and then giving 2 days off treatment until the tumors reached an average size of 2000 mm^3.

[14] = system: patient-derived PDAC cell lines (10.05, Pa02C, Pa03C); assay: SLC-0111 efficacy in PDAC cell lines under hypoxic conditions; assay type: cell-based; details: Homo sapiens, all three patient-derived PDAC cell lines, 0.2% O2, read-out: LC50 during hypoxia exposure
Method: The efficacy of SLC-0111, a CA9 inhibitor that has recently completed a Phase I clinical trial, was evaluated in different PDAC cell lines under hypoxic conditions for comparison.

[15] = Homo sapiens, Panc1005, Panc10.05, N = 3, read-out: LC50 (the source's name)
[16] = co-culture with Pa03C, D12 curves
[17] = co-culture with Panc10.05, D12 curves

SMILES	CC50 (Pa03C [1]; Homo sapiens)	CC50 (Panc10.05 [2]; [15])	fold less required vs. APX3330 to decrease hypoxia-induced CA9 mRNA and protein levels (CA9 [3])	fold less of the concentration compared to APX3330 to attenuate CA9 expression (CA9 [4])	effect on intracellular pH as single agent (10.05 cells)	CC50 (CAFs (CAF19 cells); [16])	CC50 (CAFs (CAF19 cells); [17])	CC50 (Panc10.05 [5])	CC50 (Pa03C [6])	single agent efficacy on 3D spheroid growth [7]	cytotoxicity in combination with Ref-1 inhibition (PDAC cells and CAFs)	other results
CCC/C(=C\C1=C(OC)C(=O)c2ccccc2C1=O)C(=O)N(CC)CC [APX2009, (2E)-2-[(3-methoxy-1,4-dioxo-1,4-dihydronaphthalen-2-yl)methylidene]-N,N-diethylpentanamide]	6.7 µM	4.9 µM	10 fold	10 fold	decreased intracellular pH	13.1 µM	14.1 µM	9.4 µM	6.9 µM	as effective as APX3330	–	tumor killing in combination with napabucasin ([7]; 3D spheroid model (tumor and CAF)): synergistic tumor killing effect
CCC/C(=C\C1=C(OC)C(=O)c2ccccc2C1=O)C(=O)NOC [APX2014, (2E)-2-[(3-methoxy-1,4-dioxo-1,4-dihydronapthalen-2-yl)methylidene]-N-methoxypentanamide]	–	–	10 fold	10 fold	decreased intracellular pH	–	–	–	–	as effective as APX3330	–	CC50 (Pa03C [1]): 3.5 µM; CC50 (Panc10.05 [2]; Panc10.05, N = 3, read-out: LC50 (the source's name)): 1.3 µM; EC10 [8]: 2.0 µM; EC30 [8]: 3.0 µM; drug combination synergy (Chou-Talalay, CalcuSyn) [9]: Synergy was observed; combination index [10]: > 1.0; CC50 (Panc10.05 [11]): 0.3 µM; CC50 (Pa03C [12]): 1.1 µM
CC(=O)O[C@@]12CO[C@@H]1C[C@H](O)[C@@]1(C)C(=O)[C@H](O)C3=C(C)[C@@H](OC(=O)[C@H](O)[C@@H](NC(=O)OC(C)(C)C)c4ccccc4)C[C@@](O)([C@@H](OC(=O)c4ccccc4)[C@H]21)C3(C)C [Docetaxel]	–	–	–	–	–	–	–	–	–	–	more effective than either agent alone	–
N#CC[C@H](C1CCCC1)n1cc(-c2ncnc3[nH]ccc23)cn1 [Rux, Ruxolitinib, reference compound]	–	–	–	–	–	–	–	–	–	–	–	average tumor size [13]: 1750 mm³
NS(=O)(=O)c1ccc(NC(=O)Nc2ccc(F)cc2)cc1 [SLC-0111, reference compound]	90.8 µM	63.9 µM	–	–	did not affect	97 µM	98.2 µM	64 µM	51.9 µM	–	–	CC50 [14]: < 100 µM
CC(=O)Nc1cccc(-n2c(=O)n(C3CC3)c(=O)c3c(Nc4ccc(I)cc4F)n(C)c(=O)c(C)c32)c1 [Trametinib]	–	–	–	–	–	–	–	–	–	–	more effective than either agent alone	–
